# Experimental data from patent US11738095B2, “Cyanine-containing compounds for cancer imaging and treatment” (Emory University, priority 2007, dated 2023).
# Where two headings read alike, the source gives them in different places.
# Columns and labels:
# [1] = test system: normal prostate fibroblasts (NPF), normal prostate epithelial cells (NPE), marrow stromal cells BMC; assay: uptake of IR780 by normal human cells in culture (FIG. 10); assay type: cell-based
# [2] = Description: Mice were injected with 20 μg/Kg of IR783 and IR780 (which was 100× of the imaging dose which was 0.2 μg/Kg) and results were compared for a 28 day period. […] Zero grams means the mouse died. ICG is a FDA approved dye used for several diagnostic purposes. ICG is considered to be nontoxic. ICG is used here as a measure of the toxicity of the tested compounds.
# Toxicity test of dye based on body weight gained during the treatment period from 0 to 14 days.
# [3] = test system: subcutaneous HepG2, C4-2, H358, HeLa, MCF-7 and ARCaPM tumors; assay: imaging of subcutaneous human tumors in mice with IR780 (FIG. 13); assay type: in vivo, mouse; conditions: 5 n mol tail vein, tumors 0.5-1.0 cm
# Description: Subcutaneous HepG2 (human liver cancer), C4-2 (human prostate androgen-independent and metastatic cancer), H358 (human lung cancer), HeLa (human cervical cancer), MCF-7 (human breast cancer) and ARCaPM (a highly bone and soft tissue metastatic human prostate cancer) cancers were established in live mice prior to the administration of IR-780. The tumor xenografts were measured about 0.5-1.0 cm in diameter at the time of imaging. 5 n mol of IR-780 were given to mice through tail vein and imaged using Kodak multimodal-imaging system. The distribution of IR-780 in tumor tissues was conformed by imaging of frozen sections under confocal microscope. The histopathology of the tumor was confirmed by H/E staining of the frozen tissue specimens and DAPI stained cell nuclei.
# ARCaPM cells = assay: confocal imaging of IR780 uptake and localization in ARCaPM cells (FIG. 11, 12); assay type: cell-based, human
# Description: In FIG. 11, ARCaPM Cells were plated on live-cell imaging chambers from World Precision Instrument (Sarasota, Fla.) overnight. Cells were treated with IR-780 with different concentrations and were imaged using a Perkin-Elmer Ultraview ERS spinning disc confocal microscope. This system was mounted on a Zeiss Axiovert 200 m inverted microscope equipped with a 37° C. stage warmer, incubator, and CO2 perfusion. A x63 or x100 Zeiss oil objective (numerical aperture, 1.4) was used for all images and a Z-stack was created using the attached piezoelectric z-stepper motor. The 633 nm laser line of an […] (set at 60% power) was used to excite the IR-780 organic dye. For each comparison, the exposure time and laser intensity was kept identical for accurate intensity measurement. Pixel intensity was quantitated using Metamorph 6.1 (Universal Imaging, Downingtown, Pa.) and the mean pixel intensity was generated as grey level using the Region Statistics feature on the software.
# [4] = test system: human cancer cells: ARCaPM, C4-2, PC-3, HepG2, MCF-7, RCC, T-24, HeLa, K562, H358; assay: uptake of IR780 by human cancer cells in culture (FIG. 10); assay type: cell-based; conditions: 20 uM, 30 minutes, confocal microscope
# Description: The uptake of IR780 by human cancer cells in culture was also studied. […] All the cells were cultured with 20 uM IR-780 in basal media (T-medium with 5% fetal bovine serum and 1% antibiotics) for 30 minutes and were imaged under confocal microscope.
# [5] = tail vein injection, data not shown
# [6] = test system: spontaneous prostate tumor in a TRAMP mouse; assay: imaging of spontaneous TRAMP prostate tumor, fresh and after fixation (FIG. 16B, C); assay type: in vivo; conditions: TRAMP mouse spontaneous prostate tumors, FIG. 16 legend
# Description: NIR imaging studies were performed to assess pharmacokinetics of the IR783 in vivo. […] This mouse was injected i.p with 0.2 μg/kg IR783 at 0 hrs. […] The dye retention in formalin fixed tissues can be as long as several weeks (data not shown).
# [7] = test system: spontaneously developed prostate tumor; assay: imaging of spontaneous prostate tumor in TRAMP transgenic mouse with MHI-148 (FIG. 8); assay type: in vivo
# Text: 10 nmol of MHI-148 was given to a 46 week-old TRAMP transgenic mouse with spontaneously developed prostate tumor mass and imaged after 4 hrs after MHI-148 injection (panel A). […] Surgical dissection of this mouse confirmed […] was present (panel C).
# [8] = test system: human cancer cells: LNCaP, ARCaPE, ARCaPM, C4-2, PC-3, HepG2, MG63, MCF-7, RCC, T-24, HeLa, K562, H358; assay: uptake of MHI-148 by human cancer cells in culture (FIG. 1); assay type: cell-based; conditions: 100 μM, two hours, T-medium with 5% fetal bovine serum, inverted microscope
# Description: (§1) All the cells were cultured with 100 μM MHI-148 in basal media (T-medium with 5% fetal bovine serum and 1% antibiotics) for two hours and were imaged under an inverted microscope. These conditions are the usual conditions used here unless otherwise specified.
# [9] = test system: human ARCaPE, ARCaPM, and C4-2 tumors; assay: detection of multiple tumors in one mouse with MHI-148 (FIG. 5); assay type: in vivo; conditions: 10 nmol tail vein, 96 hrs
# Description: A mouse had 5 pre-established human ARCaPE, ARCaPM, and C4-2 tumors in the back by subcutaneous injection of tumor cells. Four tumors were measured with 0.2-1.0 cm in diameter and one tumor was not detectable by visualization at the time of NHI-148 administration. […] Visual and palpation techniques could only detect four tumors, while MHI-148 (10 nmol), after tail vein administration, clearly gained access to all tumors in the live mouse and allowed tumor images to be detected in all five tumors.
# C4-2 tumor = assay: imaging of live and necrotic intratibial C4-2 tumors with MHI-148 (FIG. 6); assay type: in vivo, mouse; conditions: 10 nmol tail vein, imaged after 48 hrs
# Description: C4-2 cells were injected into both sides of tibia of one mouse. When one tumor was developed to size with visible necrosis and the other tumor still in the fast growing phase, 10 nmol MHI-148 was given through tail vein. After 48 hrs, the mouse was imaged. […] The histopathology of the tumors was confirmed by the H/E stain (see upper right panel).
# [10] = test system: subcutaneous ARCaPM, intratibial C4-2, H358 and K562 tumors; assay: imaging of pre-established tumors in live mice with MHI-148 (FIG. 4); assay type: in vivo, mouse
# Description: Subcutaneous ARCaPM and intratibial C4-2 tumors were established in live mice prior to the administration of MHI-148. The tumors measured about 0.5-1.0 cm in diameter at the time of imaging. 10 nmol of MHI-148 was given to mice through tail vein and imaged using Kodak multimodal-imaging system. Human lung (H358) and leukemia (K562) cancer cells were injected subcutaneously into one side of the shoulder of mice. When the tumors were about 1-2 cm in diameter, 10 nmol MHI-148 was given through tail vein and tumor images were taken at 96 hrs after MHI-148 administration.
# [11] = test system: human ARCaPM prostate cancer cells; assay: imaging of MHI-148 tagged ARCaPM cells injected into mice (FIG. 2B, C); assay type: in vivo, mouse; conditions: one million ARCaPM cells tagged with 10 uM MHI-148
# Description: (§2) After incubation for 2 hours, cells were washed 3 times with PBS, harvested by centrifuge and imaged. One million of the MHI-148 tagged ARCaPM cells with different concentrations were injected subcutaneously in the back of the mouse and imaged at the same time (B). […] All the in vitro and in vivo imaging was performed using a Kodak multimodal-imaging system IS2000MM (Kodak) equipped with an excitation bandpass filter at 720 nm and an emission at 850 nm. Exposure time was 30 s per image. The images were analyzed using the imaging station IS2000MM software (Kodak 1D Image Analysis Software; Kodak).
# [12] = test system: normal prostate fibroblasts, marrow stromal cells BMC, normal vascular endothelial cells VEC, mouse macrophage RAW cells; assay: uptake of MHI-148 by normal human or mouse cells in culture (FIG. 1); assay type: cell-based; conditions: 100 μM, two hours
# Description: as §1
# [13] = test system: normal prostate epithelial cells NPE and normal human skin epithelial cells HaCaT; assay: uptake of MHI-148 by normal epithelial cells in culture (FIG. 1); assay type: cell-based; conditions: 100 μM, two hours
# Description: as §1
# [14] = photostability of MHI-148; assay type: physicochemical
# Cancer cell = assay: CellTiter 96 Aqueous One Solution Cell Proliferation Assay (FIG. 7); assay type: cell-based; conditions: different concentrations, 48 hrs, T-medium 5% FBS
# Description: Cancer cell were plated in 96-well plates in T-medium containing 5% FBS with different concentrations of MHI-148 for 48 hrs of incubation. Cell numbers were measured using CellTiter 96 Aqueous One Solution Cell Proliferation Assay (Promega, Madison, Wis.).
# [15] = distribution of MHI-148 in normal mice, in vivo and ex vivo organ imaging (FIG. 3); set-up: species or system mouse; conditions: for fluorescence of isolated liver, kidney and testis: Xenogen
# Description: MHI-148 (5 nmol) was given by tail vein injection and the MHI-148 distribution followed at 2, 6, and 96 hrs. At the end of this study, mice were sacrificed at 6 or 80 hrs after MHI-148 tail vein administration. […] The isolated tissues and organs excised from mice at 6 hours and 80 hours after receiving 5 nmol MHI-148 were also imaged by the Xenogen machine and the signals were compared by fluorescence intensity.
# [16] = test system: human ARCaPM prostate cancer cells; assay: imaging of MHI-148 tagged ARCaPM cells in test tubes (FIG. 2A); assay type: cell-based; conditions: 1, 10 and 100 μM, incubation 2 hours, excitation 720 nm, emission 850 nm
# Description: as §2
# [17] = FDA approved dye; cited from earlier work
# [18] = dose 1X (imaging dose 0.2 μg/Kg), 0 day
smiles,measurement,setting,value
CCCN1/C(=C/C=C2\CCCC(/C=C/C3=[N+](CCC)c4ccccc4C3(C)C)=C2Cl)C(C)(C)c2ccccc21.[I-] [IR780],uptake of IR-780,"[1]; 20 uM, 30 minutes, confocal microscope",very low uptake
same,uptake by normal prostate epithelial cells,[1]; data not shown,did not take up the dye
same,body weight,[2]; [18],19.00 g
same,body weight,"[2]; dose 1X, 1 day",19.02 g
same,body weight,"[2]; dose 1X, 2 day",19.71 g
same,body weight,"[2]; dose 1X, 3 day",20.01 g
same,body weight,"[2]; dose 1X, 4 day",20.32 g
same,body weight,"[2]; dose 1X, 5 day",20.56 g
same,body weight,"[2]; dose 1X, 6 day",20.97 g
same,body weight,"[2]; dose 1X, 7 day",21.81 g
same,body weight,"[2]; dose 1X, 14 day",23.56 g
same,body weight,"[2]; dose 1X, 28 day",24.44 g
same,body weight,"[2]; dose 10X, 0 day",20.71 g
same,body weight,"[2]; dose 10X, 1 day",20.69 g
same,body weight,"[2]; dose 10X, 2 day",20.70 g
same,body weight,"[2]; dose 10X, 3 day",21.03 g
same,body weight,"[2]; dose 10X, 4 day",21.24 g
same,body weight,"[2]; dose 10X, 5 day",21.89 g
same,body weight,"[2]; dose 10X, 6 day",22.00 g
same,body weight,"[2]; dose 10X, 7 day",22.56 g
same,body weight,"[2]; dose 10X, 14 day",24.00 g
same,body weight,"[2]; dose 10X, 28 day",24.56 g
same,body weight,"[2]; dose 100X (20 μg/Kg), 0 day",20.14 g
same,body weight,"[2]; dose 100X, 1 day, zero grams means the mouse died",0 g
same,body weight,"[2]; dose 100X, 2 day, zero grams means the mouse died",0 g
same,body weight,"[2]; dose 100X, 3 day, zero grams means the mouse died",0 g
same,body weight,"[2]; dose 100X, 4 day, zero grams means the mouse died",0 g
same,body weight,"[2]; dose 100X, 5 day, zero grams means the mouse died",0 g
same,body weight,"[2]; dose 100X, 6 day, zero grams means the mouse died",0 g
same,body weight,"[2]; dose 100X, 7 day, zero grams means the mouse died",0 g
same,body weight,"[2]; dose 100X, 14 day, zero grams means the mouse died",0 g
same,body weight,"[2]; dose 100X, 28 day, zero grams means the mouse died",0 g
same,tumor images,[3],clear tumor images can be detected
same,subcellular localization,ARCaPM cells; co-stained with mitochondrial tracker or lysosome tracker,"co-localized with mitochondrial, lysomomal and cytoplasmic compartments"
same,effect of BSP (organic anion transporter inhibitor) on uptake,ARCaPM cells; data not shown,blocked by BSP
same,dependence of uptake,"ARCaPM cells; different concentrations, live-cell confocal imaging",time- and concentration-dependent uptake
same,uptake of IR-780,[4],significant uptake
same,uptake by normal mouse tissues,[5],failed to uptake IR780
CC1(C)C(/C=C/C2=C(Cl)C(=C/C=C3/N(CCCCCC(=O)O)c4ccccc4C3(C)C)/CCC2)=[N+](CCCCCC(=O)O)c2ccccc21.[Br-] [MHI-148],stability of dye in formalin fixation,[6],stable in formalin fixation for weeks
same,imaging of prostate tumor mass,"[7]; 46 week-old TRAMP mouse, 10 nmol, 4 hrs after injection",showed clear tumor in situ
same,signal in mouse without tumor,[7]; young age TRAMP mouse which harbored no tumor,no signal was detected
same,uptake of MHI-148,[8],significant uptake
same,size of smallest tumor imaged,[9],< 2 mm^3
same,tumors imaged,[9]; mouse with 5 tumors,All five tumors were imaged
same,uptake by live C4-2 tumor (right tibia),C4-2 tumor,shown to uptake MHI-148
same,uptake by necrotic or dead tumor cells (left side),C4-2 tumor,failed to uptake MHI-148
same,tumor images,"[10]; 10 nmol tail vein, H358 and K562 images at 96 hrs",Clear tumor associated images are seen
same,fate in tumors versus host,[10]; 96 hrs after administration,accumulated in tumors
same,image of tagged cells injected into mouse tibia,[11],can be seen in the intratibial space
same,uptake of MHI-148,[12],failed to yield any time- or concentration-dependent uptake
same,uptake of MHI-148,[13],low uptake
same,photostability,[14],relatively photostable
same,cancer cell growth (cell numbers),Cancer cell,inhibition of cancer growth in vitro
same,"fluorescence of isolated liver, kidney and testis","[15]; 5 nmol tail vein, 6 hrs post administration",positive
same,"fluorescence of isolated liver, kidney and testis","[15]; 5 nmol tail vein, 80 hrs post administration",void of any fluorescence signaling
same,"time to clearance from normal organs (liver, kidney, testis, seminal vesicles)",[15]; live animals,≤ 96 h
same,MHI-148 uptake by the liver and kidney,"[15]; normal mice, 5 nmol tail vein, 2 and 6 hrs",can be detected
same,MHI-148 in live mice and dissected mouse tissues,"[15]; normal mice, 5 nmol tail vein, by 96 hrs",no detectable MHI-148
same,images of MHI-148 tagged ARCaPM cells in test tubes,[16],intense images can be readily detected
"CC1(C)C(/C=C/C=C/C=C/C=C2\N(CCCCS(=O)(=O)[O-])c3ccc4ccccc4c3C2(C)C)=[N+](CCCCS(=O)(=O)[O-])c2ccc3ccccc3c21.[Na+] [ICG, reference compound]",body weight,[2]; [18],20.43 g
same,body weight,"[2]; dose 1X, 1 day",20.49 g
same,body weight,"[2]; dose 1X, 2 day",20.51 g
same,body weight,"[2]; dose 1X, 3 day",21.01 g
same,body weight,"[2]; dose 1X, 4 day",21.43 g
same,body weight,"[2]; dose 1X, 5 day",22.00 g
same,body weight,"[2]; dose 1X, 6 day",22.34 g
same,body weight,"[2]; dose 1X, 7 day",22.96 g
same,body weight,"[2]; dose 1X, 14 day",23.87 g
same,body weight,"[2]; dose 1X, 28 day",25.00 g
same,toxicity (general reputation),[17],nontoxic
